Experiment [1] addresses T1, Recombinant human TDO comprising amino acids 19-407 (Homo sapiens, UniProt P48775).
T1 construct: Recombinant human TDO comprising amino acids 19-407 with a N-terminal hexahistidine tag; hexahistidine (His6) (N); made in house; host or cells: E. coli
Nature of the experiment: TDO2 enzymatic assay (NFK quantified by LCMS). The conditions noted are these: 15 nM enzyme, 200 μM L-tryptophan, pH7, 30 minutes pre-incubation at RT; mean values when measured multiple times; read-out: hTDO activity (IC50 in nM). Format: biochemical. As for the experimental part:
2) Testing Compounds for TDO Inhibitory Activity in a TDO2 Enzymatic Assay:
Recombinant human TDO comprising amino acids 19-407 with a N-terminal hexahistidine tag expressed in E. coli and purified to homogeneity is incubated at a final concentration of 15 nM in assay buffer consisting of 75 mM phosphate buffer at pH7 supplemented with 100 μM ascorbic acid, 50U/ml Catalase, 0.01% BSA, and 0.01% Tween 20 (protocol modified from Seegers et al, JBS 2014). Example compounds are serially diluted in DMSO, further diluted in phosphate buffer, and added to the reaction mixture at final concentrations ranging from 10 μM to 0.5 nM. The final DMSO concentration is 0.6%. Following a pre-incubation of 30 minutes at RT, the reaction is started by the addition of L-tryptophan at a final concentration of 200 μM in assay buffer. After 30 minutes of incubation at RT, 3 μL of the reaction mixture are transferred to a 384 deep well plate containing 25 μL of deionized water. 100 μl of 200 nM L-Tryptophan-(indole-d5) in cold 100% methanol are added followed by a 10 minutes centrifugation at 3220×g at 4° C. An additional 75 μL of deionized water are then added followed by a 10 minutes centrifugation at 3220×g at 4° C. The product of the reaction N′-Formylkynurenine (NFK) is quantified by LCMS and normalized to the L-Tryptophan-(indole-d5) signal. Samples with 0.6% DMSO (0% effect) and a TDO/IDO inhibitor (100% effect) are used as control samples to set the parameters for the non-linear regression necessary for the determination of the half-maximal inhibitory concentration (IC50) for each compound. For each compound concentration the percentage of activity compared to 0% and 100% effect is calculated as average±STDEV (each concentration measured in duplicate). IC50 values and curves are generated with XLfit software (IDBS) using Dose-Response One Site model 203 (four parameter logistic curve model). The calculated IC50 values may fluctuate depending on the daily assay performance. Fluctuations of this kind are known to those skilled in the art. When compounds are measured multiple times, mean values are given.

Experiment [2] addresses T2, Recombinant full-length human IDO1 (Homo sapiens, UniProt P14902).
T2 construct: Recombinant full-length human IDO1 with a N-terminal hexahistidine tag; hexahistidine (His6) (N); made in house; host or cells: E. coli
Nature of the experiment: IDO1 enzymatic assay (NFK quantified by LCMS). Format: biochemical. Particulars: 2 nM enzyme, 5 μM L-tryptophan, pH6.5, 30 minutes pre-incubation at RT; mean values when measured multiple times; read-out: hIDO activity (IC50 in nM). On the procedure: 1) Testing Compounds for IDO Inhibitory Activity in an IDO1 Enzymatic Assay:
Recombinant full-length human IDO1 with a N-terminal hexahistidine tag expressed in E. coli and purified to homogeneity is incubated at a final concentration of 2 nM in assay buffer consisting of 37.5 mM phosphate buffer at pH6.5 supplemented with 10 mM ascorbic acid, 0.45 μM methylene blue, 50U/ml catalase, 0.01% BSA, and 0.01% Tween 20 (protocol modified from Seegers et al, JBS 2014). Example compounds are serially diluted in DMSO, further diluted in phosphate buffer, and added to the enzyme at final concentrations ranging from 10 μM to 0.5 nM. The final DMSO concentration is 0.6%. Following a pre-incubation of 30 minutes at RT, the reaction is started by the addition of L-tryptophan at a final concentration of 5 μM in assay buffer. After 30 minutes of incubation at RT, 3 μL of the 20 μl reaction mixture are transferred to a 384 deep well plate containing 25 μL of deionized water. 100 μl of 200 nM L-Tryptophan-(indole-d5) in cold 100% methanol are added followed by a 10 minutes centrifugation at 3220×g at 4° C. An additional 75 μL of deionized water are then added followed by a 10 minutes centrifugation at 3220×g at 4° C. The product of the reaction N′-Formylkynurenine (NFK) is quantified by LCMS and normalized to the L-Tryptophan-(indole-d5) signal. Samples with 0.6% DMSO (0% effect) and a TDO/IDO inhibitor (100% effect) are used as control samples to set the parameters for the non-linear regression necessary for the determination of the half-maximal inhibitory concentration (IC50) for each compound. For each compound concentration the percentage of activity compared to 0% and 100% effect is calculated as average±STDEV (each concentration measured in duplicate). IC50 values and curves are generated with XLfit software (IDBS) using Dose-Response One Site model 203 (four parameter logistic curve model). The calculated IC50 values may fluctuate depending on the daily assay performance. Fluctuations of this kind are known to those skilled in the art. When compounds are measured multiple times, mean values are given.

T1 sequence (P48775 19-406 limits assumed): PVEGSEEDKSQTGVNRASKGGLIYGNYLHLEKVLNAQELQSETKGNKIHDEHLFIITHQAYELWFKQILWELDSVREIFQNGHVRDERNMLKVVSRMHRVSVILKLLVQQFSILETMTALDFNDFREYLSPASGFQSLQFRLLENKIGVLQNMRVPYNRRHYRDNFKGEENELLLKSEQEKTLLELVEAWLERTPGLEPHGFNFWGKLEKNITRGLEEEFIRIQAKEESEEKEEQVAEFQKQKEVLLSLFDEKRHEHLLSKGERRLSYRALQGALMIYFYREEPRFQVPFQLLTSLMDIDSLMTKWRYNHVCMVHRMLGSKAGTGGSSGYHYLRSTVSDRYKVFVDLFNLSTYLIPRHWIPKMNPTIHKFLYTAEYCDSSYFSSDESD
T2 sequence (P14902 whole entry): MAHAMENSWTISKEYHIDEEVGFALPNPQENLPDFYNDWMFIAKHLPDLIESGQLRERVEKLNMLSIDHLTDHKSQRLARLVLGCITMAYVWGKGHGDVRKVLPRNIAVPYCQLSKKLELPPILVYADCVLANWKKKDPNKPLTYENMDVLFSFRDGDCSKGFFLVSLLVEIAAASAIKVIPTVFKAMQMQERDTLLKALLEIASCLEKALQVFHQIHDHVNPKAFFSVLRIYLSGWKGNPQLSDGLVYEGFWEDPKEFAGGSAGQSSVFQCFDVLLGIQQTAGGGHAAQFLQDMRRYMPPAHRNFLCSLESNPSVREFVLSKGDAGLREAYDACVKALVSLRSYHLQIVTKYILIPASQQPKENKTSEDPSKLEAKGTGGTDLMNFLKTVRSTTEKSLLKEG

For the compound `CCc1sc2cncn2c1C(O)c1cn(-c2ccc(C(=O)N(C)CC)cc2)nn1` (racemic) [Example 124, rac-N-Ethyl-4-{4-[(2-ethyl-imidazo[5,1-b]thiazol-3-yl)-hydroxy-methyl]-[1,2,3]triazol-1-yl}-N-methyl-benzamide], the IC50 in experiment [1] is more than 10200 nM; in experiment [2], 109 nM.
For `CCc1sc2cncn2c1C(O)c1cn(-c2ccc(C(=O)N(C)C)cc2)nn1` (racemic) [Example 114, rac-4-{4-[(2-Ethyl-imidazo[5,1-b]thiazol-3-yl)-hydroxy-methyl]-[1,2,3]triazol-1-yl}-N,N-dimethyl-benzamide], the IC50 in experiment [1] is more than 10200 nM; in experiment [2] it was 108 nM.
Regarding `OC(c1cn(-c2ccccn2)nn1)c1c(C2CC2)sc2cncn12` (racemic) [Example 14, rac-(2-Cyclopropyl-imidazo[5,1-b]thiazol-3-yl)-(1-pyridin-2-yl-1H-[1,2,3]triazol-4-yl)-methanol], the IC50 in experiment [1] is more than 10200 nM; in experiment [2] it was 79.6 nM.
For `Cc1c([C@H](O)c2c(C3CC3)sc3cncn23)nnn1-c1ccccc1` [Example 101a, (R)-(2-Cyclopropyl-imidazo[5,1-b]thiazol-3-yl)-(5-methyl-1-phenyl-1H-[1,2,3]triazol-4-yl)-methanol], the values for the IC50 in experiment [1] and in experiment [2] were 4410 nM and 6.31 nM, respectively.
As for `N#Cc1cccc(-c2ccc(C(O)c3c(C4CC4)sc4cncn34)s2)c1` (racemic) [Example 159, rac-3-{5-[(2-Cyclopropyl-imidazo[5,1-b]thiazol-3-yl)-hydroxy-methyl]-thiophen-2-yl}-benzonitrile], the IC50 amounted to 8310 nM in experiment [1] and 238 nM in experiment [2].
For the compound `Cc1sc2cncn2c1C(O)c1cn(-c2ccc(N3CCOCC3)cc2)nn1` (racemic) [Example 56, rac-(2-Methyl-imidazo[5,1-b]thiazol-3-yl)-[1-(4-morpholin-4-yl-phenyl)-1H-[1,2,3]triazol-4-yl]-methanol], the half-maximal inhibitory concentration (IC50) was more than 10200 nM in experiment [1] and 422 nM in experiment [2].
For `O=C(NC1CC1)c1ccc(-n2cc(C(O)c3c(C4CC4)sc4cncn34)nn2)cc1` (racemic) [Example 105, rac-N-Cyclopropyl-4-{4-[(2-cyclopropyl-imidazo[5,1-b]thiazol-3-yl)-hydroxy-methyl]-[1,2,3]triazol-1-yl}-benzamide] the same measures were more than 10200 nM and 22.1 nM.
For `N#Cc1cccc(-n2cc([C@H](O)c3c(C4CC4)sc4cncn34)nn2)c1` [Example 18a, 3-{4-[(R)-(2-Cyclopropyl-imidazo[5,1-b]thiazol-3-yl)-hydroxy-methyl]-[1,2,3]triazol-1-yl}-benzonitrile] the same measures were more than 10200 nM and 13.5 nM.
Take `CCc1sc2cncn2c1C(O)c1cn(-c2cncc3ccccc23)nn1` (racemic) [Example 52, rac-(2-Ethyl-imidazo[5,1-b]thiazol-3-yl)-(1-isoquinolin-4-yl-1H-[1,2,3]triazol-4-yl)-methanol]: the IC50 in experiment [1] was determined as 5060 nM; in experiment [2], 41.8 nM.
For the compound `CCc1sc2cncn2c1C(O)c1cn(-c2ccc(NC(=O)N3CCOCC3)cc2)nn1` (racemic) [Example 121, rac-Morpholine-4-carboxylic acid (4-{4-[(2-ethyl-imidazo[5,1-b]thiazol-3-yl)-hydroxy-methyl]-[1,2,3]triazol-1-yl}-phenyl)-amide], the IC50 in experiment [1] turned out to be 7720 nM; in experiment [2], 32 nM.
On to `Cc1sc2cncn2c1C(O)c1cnn(-c2ccccc2)c1C` (racemic) [Example 98, rac-(2-Methyl-imidazo[5,1-b]thiazol-3-yl)-(5-methyl-1-phenyl-1H-pyrazol-4-yl)-methanol], for which the IC50 came to 864 nM in experiment [1] and 186 nM in experiment [2].
Turning to `OC(c1cccc(-c2ccccc2)c1)c1c(C2CC2)sc2cncn12` (racemic) [Example 153, rac-Biphenyl-3-yl-(2-cyclopropyl-imidazo[5,1-b]thiazol-3-yl)-methanol], the IC50 in experiment [1] was more than 10200 nM; in experiment [2], 2320 nM.
`OC(c1cn(-c2ccccc2)cn1)c1c(C2CC2)sc2cncn12` (racemic) [Example 178, rac-(2-Cyclopropyl-imidazo[5,1-b]thiazol-3-yl)-(1-phenyl-1H-imidazol-4-yl)-methanol]: the IC50 in experiment [1] was more than 10200 nM; in experiment [2] it was 515 nM.
As to `COC(=O)c1ccc(Cn2cc(C(O)c3c(C4CC4)sc4cncn34)nn2)cc1` (racemic) [Example 297, rac-4-{4-[(2-Cyclopropyl-imidazo[5,1-b]thiazol-3-yl)-hydroxy-methyl]-[1,2,3]triazol-1-ylmethyl}-benzoic acid methyl ester], the IC50 was more than 10200 nM in experiment [1] and 16 nM in experiment [2].
For `OC(c1cn(-c2ccc(OCCN3CCCCC3)cc2)nn1)c1c(C2CC2)sc2cncn12` (racemic) [Example 89, rac-(2-Cyclopropyl-imidazo[5,1-b]thiazol-3-yl)-{1-[4-(2-piperidin-1-yl-ethoxy)-phenyl]-1H-[1,2,3]triazol-4-yl}-methanol] the same measures were more than 10200 nM and 204 nM.
As to `CC(F)(F)c1sc2cncn2c1C(O)c1cn(-c2ccc(OCCCO)c(Cl)c2)nn1` (racemic) [Example 314, rac-3-[2-Chloro-4-(4-{[2-(1,1-difluoro-ethyl)-imidazo[5,1-b]thiazol-3-yl]-hydroxy-methyl}-[1,2,3]triazol-1-yl)-phenoxy]-propan-1-ol], the IC50 was more than 10200 nM in experiment [1] and 10.2 nM in experiment [2].
Taken in the same sequence, the figures for `COc1cc(-n2cc(C(O)c3c(C4CC4)sc4cncn34)nn2)c(OC)nn1` (racemic) [Example 86, rac-(2-Cyclopropyl-imidazo[5,1-b]thiazol-3-yl)-[1-(3,6-dimethoxy-pyridazin-4-yl)-1H-[1,2,3]triazol-4-yl]-methanol] were more than 10200 nM and 23.1 nM.
Take `OC(c1ccc(-c2ccccc2)cc1)c1c(C2CC2)sc2cncn12` (racemic) [Example 152, rac-Biphenyl-4-yl-(2-cyclopropyl-imidazo[5,1-b]thiazol-3-yl)-methanol]: the figures for the IC50 in experiment [1] and in experiment [2] were more than 10200 nM and 184 nM, respectively.
With `CCc1sc2cncn2c1C(O)c1cn(-c2ccc(N)c(Cl)c2)nn1` (racemic) [Example 272, rac-[1-(4-Amino-3-chloro-phenyl)-1H-[1,2,3]triazol-4-yl]-(2-ethyl-imidazo[5,1-b]thiazol-3-yl)-methanol], the results for the IC50 in experiment [1] and in experiment [2] were 3840 nM and 4.44 nM, respectively.
For `CCc1sc2cncn2c1C(O)c1cn(-c2ccc(C(=O)NC)cc2)nn1` (racemic) [Example 111, rac-4-{4-[(2-Ethyl-imidazo[5,1-b]thiazol-3-yl)-hydroxy-methyl]-[1,2,3]triazol-1-yl}-N-methyl-benzamide] the same measures were more than 10200 nM and 28.8 nM.
